Results: patent US20190358181A1, “METHODS FOR AUTISM SPECTRUM DISORDER PHARMACOTHERAPY” (priority 2017, published 2019)

Tested on: 610 metabolites from 63 biochemical pathways
Assay: Targeted broad-spectrum plasma metabolomic analysis (LC-MS/MS), paired pre-infusion vs post-infusion (2-days and 6-weeks)
Assay type: in vivo, human
Settings: for Linear Ratio / VIP Score / Z Abs / Z Score: plasma
Experimental: Targeted, broad-spectrum, plasma metabolomic analysis of 610 metabolites from 63 biochemical pathways was performed by high performance liquid chromatography and tandem mass spectrometry (LC-MS/MS) on the samples collected from patients in Example 1. Venous blood was collected between the hours of 8 am and 5 pm, at least 3 hours after the last meal, into lithium-heparin vacutainer tubes (BD #367884). Plasma was separated by centrifugation at 900 g×10 minutes at room temperature within one hour of collection. The resulting fresh lithium-heparin plasma was transferred to labeled 1.2 ml or 2.0 ml externally threaded cryotubes with a minimum headspace air gap for storage at −80° C. for analysis. Samples were analyzed on an AB SCIEX QTRAP 5500 triple quadrupole mass spectrometer equipped with a Turbo V electrospray ionization (ESI) source, Shimadzu LC-20A UHPLC system, and a PAL CTC autosampler. Typically, 90 μl of plasma was thawed on ice and transferred to a 1.7 ml Eppendorf tube. Five (5.0) μl of a cocktail containing 25-35 commercial stable isotope internal standards, and 5.0 μl of 57 stable isotope internal standards that were custom-synthesized in E. coli NCM3722, Caenorhabditis elegans N2, and Komagataella phaffii (ATCC 76273; formerly known as Pichia pastoris) by metabolic labeling with 13C-glucose and 13C-bicarbonate, were added, mixed, and incubated for 10 min at 20° C. to permit small molecules and vitamins in the internal standards to associate with plasma binding proteins. Macromolecules (protein, DNA, RNA, glycans, etc.) were precipitated by extraction with 4 volumes (400 μl) of cold (−20° C.), acetonitrile:methanol (50:50) (LCMS grade, Cat #LC015-2.5 and GC230-4, Burdick & Jackson, Honeywell), vortexed vigorously, and incubated on crushed ice for 10 min, then removed by centrifugation at 16,000 g×10 min at 4° C. The supernatants containing the extracted metabolites and internal standards in the resulting 40:40:20 solvent mix of acetonitrile:methanol:water were transferred to labeled cryotubes and stored at −80° C. for LCMS/MS analysis.
LC-MS/MS analysis was performed by scheduled multiple reaction monitoring (sMRM) under Analyst v1.6.2 software control in both negative and positive mode with rapid polarity switching (50 ms). Nitrogen was used for curtain gas (set to 30), collision gas (set to high), ion source gas 1 and 2 (set to 35). The source temperature was 500° C. Spray voltage was set to −4500 V in negative mode and 5500 V in positive mode. The values for Q1 and Q3 mass-to-charge ratios (m/z), declustering potential (DP), entrance potential (EP), collision energy (CE), and collision cell exit potential (CXP) were determined and optimized for each MRM for each metabolite. Ten microliters of extract was injected by PAL CTC autosampler via a 10 μl stainless steel loop into a 250 mm×2.0 mm, 4 μm polymer based NH2 HPLC column (Asahipak NH2P-40 2E, Showa Denko America, Inc., NY) held at 25° C. for chromatographic separation. The mobile phase was solvent A: 95% water with 20 mM (NH4)2CO3 (Sigma, Fluka Cat #74415-250G-F), 5% acetonitrile, and 38 mM NH4OH (Sigma, Fluka Cat #17837-100ML), final pH 9.75; solvent B: 100% acetonitrile. Separation was achieved using the following gradient: 0-3.5 min: 95% B, 3.6-8 min: 85% B, 8.1-13 min: 75% B, 13.5-35 min: 0% B, 36-46 min: 95% B, 46.1 min: end. The flow rate was 200 μl/min. Pump pressures ranged from 920-2600 psi over the course of the gradient. All the samples were kept at 4° C. during analysis. The chromatographic peaks were identified using MultiQuant (v3.0, Sciex), confirmed by manual inspection, and the peak areas integrated. […]

[1] = 1-Carbon, Folate, Formate, Glycine, Serine Metabolism, 6-weeks
[2] = 1-Pyrroline-5-carboxylic acid, 6-weeks
[3] = 2-Hydroxyisocaproic acid, 6-weeks
[4] = 2-Hydroxyisovaleric acid, 6-weeks
[5] = 3-Hydroxy-cis-5-tetradecenoylcarnitine, 6-weeks
[6] = 4-Hydroxyphenyllactic acid, 6-weeks
[7] = Amino Acid Metabolism (not otherwise covered), 6-weeks
[8] = Amino-Sugar, Galactose, & Non-Glucose Metabolism, 6-weeks
[9] = Amino-Sugar, Galactose, & Non-Glucose, 2-days
[10] = Bioamines and Neurotransmitter Metabolism, 2-days

Cc1ccc(C(=O)Nc2ccc(S(=O)(=O)O)c3cc(S(=O)(=O)O)cc(S(=O)(=O)O)c23)cc1NC(=O)c1cccc(NC(=O)Nc2cccc(C(=O)Nc3cc(C(=O)Nc4ccc(S(=O)(=O)O)c5cc(S(=O)(=O)O)cc(S(=O)(=O)O)c45)ccc3C)c2)c1 [Suramin, suramin]
Decreased [1]: 0 | Fold Enrichment (Obs/Exp) [1]: 3.6 | Fraction of Impact (VIP Score) Explained (% of 94.6) [1]: 4% | Impact (Sum VIP Score) [1]: 4.0 | Increased [1]: 2 | Observed Hits in the Top 48 Metabolites [1]: 2 | Linear Ratio (1-Methyladenine, 6-weeks): 2.287 | VIP Score (1-Methyladenine, 6-weeks): 2.459 | Z Abs (1-Methyladenine, 6-weeks): 2.259 | Z Score (1-Methyladenine, 6-weeks): 2.259 | Linear Ratio [2]: 1.299 | VIP Score [2]: 2.358 | Z Abs [2]: 1.922 | Z Score [2]: 1.922 | Linear Ratio [3]: 1.306 | VIP Score [3]: 1.622 | Z Abs [3]: 0.997 | Z Score [3]: 0.997 | Linear Ratio [4]: 1.234 | VIP Score [4]: 1.988 | Z Abs [4]: 1.146 | Z Score [4]: 1.146 | Linear Ratio (2-Keto-L-gluconate, 6-weeks): 1.239 | VIP Score (2-Keto-L-gluconate, 6-weeks): 2.686 | Z Abs (2-Keto-L-gluconate, 6-weeks): 2.365 | Z Score (2-Keto-L-gluconate, 6-weeks): 2.365 | biochemical pathways changed by suramin (2-days after the infusion): 28 | Linear Ratio [5]: 0.734 | VIP Score [5]: 1.612 | Z Abs [5]: 1.056 | Z Score [5]: −1.056 | Linear Ratio [6]: 1.294 | VIP Score [6]: 1.945 | Z Abs [6]: 1.172 | Z Score [6]: 1.172 | pathways changed at 2-days that remained changed (6-week time point): 79% | metabolites significantly changed by suramin (total) (6-weeks): 48 | Linear Ratio (Alanine, 6-weeks): 1.322 | VIP Score (Alanine, 6-weeks): 2.456 | Z Abs (Alanine, 6-weeks): 1.687 | Z Score (Alanine, 6-weeks): 1.687 | Linear Ratio (Allantoin, 6-weeks): 1.798 | VIP Score (Allantoin, 6-weeks): 1.882 | Z Abs (Allantoin, 6-weeks): 1.068 | Z Score (Allantoin, 6-weeks): 1.068 | Decreased [7]: 0 | Fold Enrichment (Obs/Exp) [7]: 4.5 | Fraction of Impact (VIP Score) Explained (% of 94.6) [7]: 5% | Impact (Sum VIP Score) [7]: 4.3 | Increased [7]: 2 | Observed Hits in the Top 48 Metabolites [7]: 2 | Decreased (Amino Acid Metabolism, 2-days): 0 | Fold Enrichment (Obs/Exp) (Amino Acid Metabolism, 2-days): 1.8 | Fraction of Impact (VIP Score) Explained (% of 119.7) (Amino Acid Metabolism, 2-days): 1% | Impact (Sum VIP Score) (Amino Acid Metabolism, 2-days): 1.8 | Increased (Amino Acid Metabolism, 2-days): 1 | Observed Hits in the Top 61 Metabolites (Amino Acid Metabolism, 2-days): 1 | Decreased [8]: 0 | Fold Enrichment (Obs/Exp) [8]: 1.8 | Fraction of Impact (VIP Score) Explained (% of 94.6) [8]: 2% | Impact (Sum VIP Score) [8]: 1.9 | Increased [8]: 1 | Observed Hits in the Top 48 Metabolites [8]: 1 | Decreased [9]: 0 | Fold Enrichment (Obs/Exp) [9]: 1.4 | Fraction of Impact (VIP Score) Explained (% of 119.7) [9]: 1% | Impact (Sum VIP Score) [9]: 1.6 | Increased [9]: 1 | Observed Hits in the Top 61 Metabolites [9]: 1 | Linear Ratio (Azelaic acid, 6-weeks): 1.120 | VIP Score (Azelaic acid, 6-weeks): 2.151 | Z Abs (Azelaic acid, 6-weeks): 2.558 | Z Score (Azelaic acid, 6-weeks): 2.558 | Decreased (Bile Acid Metabolism, 6-weeks): 0 | Fold Enrichment (Obs/Exp) (Bile Acid Metabolism, 6-weeks): 4.5 | Fraction of Impact (VIP Score) Explained (% of 94.6) (Bile Acid Metabolism, 6-weeks): 6% | Impact (Sum VIP Score) (Bile Acid Metabolism, 6-weeks): 5.7 | Increased (Bile Acid Metabolism, 6-weeks): 3 | Observed Hits in the Top 48 Metabolites (Bile Acid Metabolism, 6-weeks): 3 | Decreased (Bile Salt Metabolism, 2-days): 0 | Fold Enrichment (Obs/Exp) (Bile Salt Metabolism, 2-days): 4.7 | Fraction of Impact (VIP Score) Explained (% of 119.7) (Bile Salt Metabolism, 2-days): 10% | Impact (Sum VIP Score) (Bile Salt Metabolism, 2-days): 11.9 | Increased (Bile Salt Metabolism, 2-days): 4 | Observed Hits in the Top 61 Metabolites (Bile Salt Metabolism, 2-days): 4 | Decreased [10]: 2 | Fold Enrichment (Obs/Exp) [10]: 1.6 | Fraction of Impact (VIP Score) Explained (% of 119.7) [10]: 3% | Impact (Sum VIP Score) [10]: 3.3 | Increased [10]: 0 | Observed Hits in the Top 61 Metabolites [10]: 2 | Decreased (Branch Chain Amino Acid Metabolism, 2-days): 0
